From US4015974A, “Amido phosphorothiolates” (priority 1972, dated 1977)
Converted amounts (≈) assume the structure as drawn. Like-named read-outs stand apart in the source and are kept apart here.

Legend:
Format in all cases: in vivo
[1] = tested on: rice stem borer (Chilo suppressalis); assay: Lethal effect on rice stem borer (Table 6); settings: 50 % emulsifiable concentrate, 1000 fold dilute solution, 4 days after application
Description: Eggs just before hatch of the rice stem borer were applied in a ratio of 100/pot near the root of rice plants grown up into the tillering stage in an […] Wagner's pot. After eggs were hatched and the larvae entered into stems of rice plants, an 1000 fold dilute solution of each 50 % emulsifiable concentrates of the present compounds was applied by means of a turn table.

[2] = tested on: common lambsquarter (Chenopodium album); assay: Pre-emergence application, herbicidal effect on common lambsquarter (Table 1); set-up: key: 0: not damaged; 5: completely killed; settings: 20 days after application, score 0-5
How it was run: (§1)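 Soil treatment after sowing, pre-emergence; wettable powder formulations diluted with water. Greenhouse, 20 d. Score 0 = no damage, 5 = complete kill.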

[3] = tested on: barnyard grass (Echinochloa crus-galli); assay: Water application, herbicidal effect on barnyard grass (Table 2); set-up: key: 0: not damaged; 5: completely killed; settings: 25 days, score 0-5
How it was run: (§2)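 Paddy-soil pots flooded to paddy conditions; rice transplanted at 3-leaf stage, barnyard grass sown, broad-leaved weeds germinating spontaneously. Test compounds applied as wettable powder to soil under flooded water. Herbicidal effect and rice phytotoxicity scored 0–5 at 25 days after application.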

rice = assay: Water application, phytotoxicity on rice (Table 2); set-up: key: 0: no effect; 1: very slightly affected; 2: slightly affected; 3: moderately affected; 4: considerably affected; 5: completely killed; settings: 25 days, score 0-5
How it was run: as §2

[4] = tested on: large crabgrass (Digitaria sanguinalis); assay: Pre-emergence application, herbicidal effect on large crabgrass (Table 1); set-up: key: 0: not damaged; 5: completely killed; settings: 20 days after application, score 0-5
How it was run: as §1

nematode = assay: Effect on nematode (Table 7); set-up: tested at 500 ppm; settings: 500 p.p.m., 24 hours
Description: 0.5 ml. of a nematode-containing aqueous solution separated from food according to Baermann's method was placed in a test tube with ground stopper containing 0.5 ml. of an aqueous dilute solution of each emulsifiable concentrates of the present compounds. The concentration of the active ingredient in the mixture was adjusted to 500 p.p.m. After 24 hours, the death and alive were observed microscopically to calculate the mortality.

[5] = tested on: barnyard grass (Echinochloa crus-galli); assay: Pre-emergence application, herbicidal effect on barnyard grass (Table 1); set-up: key: 0: not damaged; 5: completely killed; settings: 20 days after application, score 0-5
How it was run: as §1

[6] = tested on: common purslane (Portulaca oleracea); assay: Pre-emergence application, herbicidal effect on common purslane (Table 1); set-up: key: 0: not damaged; 5: completely killed; settings: 20 days after application, score 0-5
How it was run: as §1

[7] = tested on: carmine mite (Tetranychus telavius); assay: Lethal effect on carmine mite, leaf dipping (Table 3); settings: foliar
Description: A large number of carmine mite adult were made parasitic on leaves of potted kidney beans at a 2-leaves stage which had elapsed 10 days after sowing. The leaves of kidney bean on which carmine mites had been made parasitic were dipped for 1 minute in each aqueous solution of the present compounds of wettable powder type. Water was given to the leaves not to kill them, and after 48 hours the death and alive were observed microscopically to calculate the mortality. Values of LC50 were obtained from the mortality.

[8] = tested on: broad-leaved weeds, e.g., monochoria, false pimpernel and toothcup; assay: Water application, herbicidal effect on broad-leaved weeds (Table 2); set-up: key: 0: not damaged; 5: completely killed; settings: 25 days, score 0-5
How it was run: as §2

radish = assay: Pre-emergence application, herbicidal effect on radish (Table 1); set-up: key: 0: not damaged; 5: completely killed; settings: 20 days after application, score 0-5
How it was run: as §1

[9] = tested on: redroot pigweed (Amaranthus retroflexus); assay: Pre-emergence application, herbicidal effect on redroot pigweed (Table 1); set-up: key: 0: not damaged; 5: completely killed; settings: 20 days after application, score 0-5
How it was run: as §1

| SMILES | Mortality [1] | Herbicidal effect, common lambsquarter ([2]; 10 g./a.) | Herbicidal effect, common lambsquarter ([2]; 20 g./a.) | Herbicidal effect, common lambsquarter ([2]; 40 g./a.) | Herbicidal effects, barnyard grass ([3]; 10 g/a) | Herbicidal effects, barnyard grass ([3]; 20 g/a) | Herbicidal effects, barnyard grass ([3]; 40 g/a) | Phytotoxicity on rice (rice; 10 g/a) | Phytotoxicity on rice (rice; 20 g/a) | Phytotoxicity on rice (rice; 40 g/a) | Herbicidal effect, large crabgrass ([4]; 10 g./a.) | Herbicidal effect, large crabgrass ([4]; 20 g./a.) | Herbicidal effect, large crabgrass ([4]; 40 g./a.) | Mortality (nematode) | Herbicidal effect, barnyard grass ([5]; 10 g./a.) | Herbicidal effect, barnyard grass ([5]; 20 g./a.) | Herbicidal effect, barnyard grass ([5]; 40 g./a.) | Herbicidal effect, common purslane ([6]; 10 g./a.) | Herbicidal effect, common purslane ([6]; 20 g./a.) | LC50 ([7]; 48 h) | also measured |
| --- | --- | --- | --- | --- | --- | --- | --- | --- | --- | --- | --- | --- | --- | --- | --- | --- | --- | --- | --- | --- | --- |
| CCCCSP(=O)(OC)SCC(=O)N1CCCCC1C (stereo not drawn) [Compound 31] | 69.5% |  |  |  |  |  |  |  |  |  |  |  |  |  |  |  |  |  |  |  |  |
| CCOP(=O)(SCC(=O)N1CCCCC1C)SCC(C)C (stereo not drawn) [Compound 6] | 75.0% |  |  |  |  |  |  |  |  |  |  |  |  |  |  |  |  |  |  |  |  |
| CCOP(=O)(SCC(=O)N1CCCCC1C)SCc1ccccc1 (stereo not drawn) [Compound 11] |  | 4 | 4 | 5 | 5 | 5 | 5 | 0 | 0 | 0 | 4 | 5 | 5 | 100% | 4 | 5 | 5 | 4 | 4 | 50 µg/mL (≈ 129 µM) | Herbicidal effect, common purslane ([6]; 40 g./a.): 5; Herbicidal effects, broad-leaved weeds ([8]; 10 g/a): 5; Herbicidal effects, broad-leaved weeds ([8]; 20 g/a): 5; Herbicidal effects, broad-leaved weeds ([8]; 40 g/a): 5; Herbicidal effect, radish (radish; 10 g./a.): 0; Herbicidal effect, radish (radish; 20 g./a.): 0; Herbicidal effect, radish (radish; 40 g./a.): 0; Herbicidal effect, redroot pigweed ([9]; 10 g./a.): 4; Herbicidal effect, redroot pigweed ([9]; 20 g./a.): 5; Herbicidal effect, redroot pigweed ([9]; 40 g./a.): 5 |
| CCOC(=O)CC(SP(=S)(OC)OC)C(=O)OCC (stereo not drawn) [Malathion, reference compound] | 41.3% |  |  |  |  |  |  |  |  |  |  |  |  |  |  |  |  |  |  |  |  |
| CCCSP(=O)(OC)SCC(=O)N1CCCCC1C (stereo not drawn) [Compound 30] |  |  |  |  |  |  |  |  |  |  |  |  |  |  |  |  |  |  |  | 22.8 µg/mL (≈ 70.1 µM) |  |
| CCCSP(=O)(OCC)SCC(=O)N1CCCCC1CC (stereo not drawn) [Compound 14] |  | 4 | 5 | 5 | 5 | 5 | 5 | 0 | 0 | 0 | 5 | 5 | 5 | 100% | 5 | 5 | 5 | 5 | 5 | 23.1 µg/mL (≈ 65.3 µM) | Herbicidal effect, common purslane ([6]; 40 g./a.): 5; Herbicidal effects, broad-leaved weeds ([8]; 10 g/a): 5; Herbicidal effects, broad-leaved weeds ([8]; 20 g/a): 5; Herbicidal effects, broad-leaved weeds ([8]; 40 g/a): 5; Herbicidal effect, radish (radish; 10 g./a.): 0; Herbicidal effect, radish (radish; 20 g./a.): 0; Herbicidal effect, radish (radish; 40 g./a.): 0; Herbicidal effect, redroot pigweed ([9]; 10 g./a.): 4; Herbicidal effect, redroot pigweed ([9]; 20 g./a.): 5; Herbicidal effect, redroot pigweed ([9]; 40 g./a.): 5 |
| CCOP(=O)(SCCC(C)C)SCC(=O)N1CCCCC1C (stereo not drawn) [Compound 7] |  | 5 | 5 | 5 | 5 | 5 | 5 | 0 | 0 | 0 | 5 | 5 | 5 | 100% | 5 | 5 | 5 | 5 | 5 | 18.5 µg/mL (≈ 50.3 µM) | Herbicidal effect, common purslane ([6]; 40 g./a.): 5; Herbicidal effects, broad-leaved weeds ([8]; 10 g/a): 5; Herbicidal effects, broad-leaved weeds ([8]; 20 g/a): 5; Herbicidal effects, broad-leaved weeds ([8]; 40 g/a): 5; Herbicidal effect, radish (radish; 10 g./a.): 0; Herbicidal effect, radish (radish; 20 g./a.): 0; Herbicidal effect, radish (radish; 40 g./a.): 0; Herbicidal effect, redroot pigweed ([9]; 10 g./a.): 4; Herbicidal effect, redroot pigweed ([9]; 20 g./a.): 5; Herbicidal effect, redroot pigweed ([9]; 40 g./a.): 5 |
| C=C(C)CSP(=O)(OCC)SCC(=O)N1CCCCC1C (stereo not drawn) [Compound 35] | 95.0% |  |  |  |  |  |  |  |  |  |  |  |  |  |  |  |  |  |  |  |  |
| CC(COc1ccc(C(C)(C)C)cc1)OCC(C)OS(=O)OCCl (stereo not drawn) [Smite, reference compound] |  |  |  |  |  |  |  |  |  |  |  |  |  |  |  |  |  |  |  |  | LC50 ([7]; leaves dipped 1 minute, wettable powder, 48 hours, read-out: LC50): 102 µg/mL (≈ 269 µM) |
